Some test systems named below: CAKI-1 renal; EKVX NSCLC; M14 melanoma; MALME-3M melanoma; MDA-MB-231 breast; MOLT-4 leukemia; OVCAR-3 ovarian; PC-3 prostate; SNB-75 CNS; UACC-62 melanoma.
Common to all, as to assay: inhibition of tumour cell growth, NCI panel, 48 h

Values joined by “and” are separate entries in the source; they are usually repeats but may differ in a detail not shown here. Equal entries are not always repeated.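 Growth conditions: 96-well plates. Treatment: test compound, 48 hours, 5 concentrations. Analysis: linear interpolation between bracketing concentrations; unreached endpoints set to highest concentration. GI50 is the concentration that inhibits growth by half. The concentration for full growth arrest is given as TGI.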

On to `CN1CCN(c2ccc(C(=O)Nc3n[nH]c4ccc(Cc5cc(F)cc(F)c5)cc34)c(NC3CCOCC3)c2)CC1`, for which the GI50 in the test with CAKI-1 renal is 8530 nM and 1560 nM; in the test on EKVX NSCLC, 3070 nM; with M14 melanoma, 1580 nM and 1690 nM; with MALME-3M melanoma it was 1500 nM; in the test on MDA-MB-231 breast it was 1890 nM and 1500 nM; in the test with MOLT-4 leukemia it was 2180 nM and 1820 nM. Besides, the GI50 is 3330 nM and 1470 nM in the test on OVCAR-3 ovarian; 2830 nM and 1380 nM in the test on PC-3 prostate; 1050 nM with SNB-75 CNS; 1520 nM and 1600 nM in the test on UACC-62 melanoma. For the same compound, the TGI in the test on CAKI-1 renal is > 10000 nM and 3070 nM; in the test on EKVX NSCLC, above 10000 nM; in the test with M14 melanoma, 3200 nM and 3400 nM; with MALME-3M melanoma, 3010 nM; with MDA-MB-231 breast, 5510 nM and 3060 nM; with MOLT-4 leukemia, 7180 nM and 4420 nM. Moreover, the TGI is > 10000 nM and 2840 nM in the test on OVCAR-3 ovarian; > 10000 nM and 2990 nM with PC-3 prostate; 2360 nM with SNB-75 CNS; 3030 nM and 3100 nM in the test on UACC-62 melanoma.
